Test results from paper PMC12040169 (PLOS Biology, 2025).

Assay: in vitro
Conditions: human, hela cells, % viability

CC(=O)N1c2ccc(-c3cn4ccc(C)cc4n3)cc2CC1C (stereo not shown) [CBK285191]
viability at 28.5 h, 10 µM: 79.2%

Cc1cccc2cc3c(nc12)OCCN(C)C3 [CBK285192]
viability at 28.5 h, 10 µM: 89.1%

CC(=O)N1c2ccc(-c3cn4cc(C)ccc4n3)cc2CC1C (stereo not shown) [CBK285195]
viability at 28.5 h, 10 µM: 82.5%

Cc1cccc2cnc(C3CCN(C(=O)c4cnn(C)c4C)CC3)cc12 [CBK285196]
viability at 28.5 h, 10 µM: 88.2%

Cc1cccc2cnc(C3CCN(C(=O)CCc4ccno4)CC3)cc12 [CBK285197]
viability at 28.5 h, 10 µM: 81%

COCC(=O)N1CCC(c2nc(C)n3c(C)csc23)CC1 [CBK285198]
viability at 28.5 h, 10 µM: 96.7%

Cc1nc(C2CCCN(C(=O)c3ccncc3)C2)c2sccn12 (stereo not shown) [CBK285199]
viability at 28.5 h, 10 µM: 90.8%

CCOC(=O)Cn1ccc2ccnc(-c3cccs3)c21 [CBK285200]
viability at 28.5 h, 10 µM: 107%

Cc1nc(C2CCN(C(=O)c3ccn(C)n3)CC2)c2sccn12 [CBK285202]
viability at 28.5 h, 10 µM: 93.4%

Cc1nc(C2CCN(C(=O)c3ccnn3C)CC2)c2sccn12 [CBK285203]
viability at 28.5 h, 10 µM: 90.3%

OC1(c2cccnc2)C2CCCC1CN(Cc1ccc(F)cc1)C2 (stereo not shown) [CBK285204]
viability at 28.5 h, 10 µM: 89.8%

Cc1n[nH]c(C)c1CC(=O)NC(Cc1cccs1)c1ccccn1 (stereo not shown) [CBK285208]
viability at 28.5 h, 10 µM: 111%

Cn1cc(C(=O)NC(Cc2cccs2)c2ccccn2)ccc1=O (stereo not shown) [CBK285209]
viability at 28.5 h, 10 µM: 112%

Cc1noc(C)c1C(=O)N1CCCC(c2nc(C)n3ccsc23)C1 (stereo not shown) [CBK285211]
viability at 28.5 h, 10 µM: 103%

Cc1csc2c(C3CCCN(C(=O)C4CC4)C3)nc(C)n12 (stereo not shown) [CBK285212]
viability at 28.5 h, 10 µM: 87.1%

Cc1csc2c(C3CCCN(C(=O)c4ccncc4)C3)nc(C)n12 (stereo not shown) [CBK285213]
viability at 28.5 h, 10 µM: 100%

COCC(=O)N1CCCC(c2nc(C)n3c(C)csc23)C1 (stereo not shown) [CBK285214]
viability at 28.5 h, 10 µM: 98.7%

Cc1csc2c(C3CCCN(C(=O)c4ccnn4C)C3)nc(C)n12 (stereo not shown) [CBK285215]
viability at 28.5 h, 10 µM: 96.9%

CCNC(=O)C1(Cc2ccccc2-c2ccncc2)CCOCC1 [CBK285216]
viability at 28.5 h, 10 µM: 100%

C=CCNC(=O)C1(Cc2ccccc2-c2cccnc2)CCOCC1 [CBK285217]
viability at 28.5 h, 10 µM: 109%

CCNC(=O)C1(Cc2ccccc2-c2cccnc2)CCOCC1 [CBK285218]
viability at 28.5 h, 10 µM: 103%

Cn1ccnc1C1(O)C2CCCC1CN(CC1CCCCC1)C2 (stereo not shown) [CBK285220]
viability at 28.5 h, 10 µM: 91.5%

Cn1nc(C(Cc2ccccc2)NC(=O)c2ccco2)c2cccnc21 (stereo not shown) [CBK285223]
viability at 28.5 h, 10 µM: 97.1%

CC(=O)N1CCc2cc(-c3cc4c(C)cccn4c3)ccc21 [CBK285225]
viability at 28.5 h, 10 µM: 96%

CC1Cc2cc(-c3cc4ccccn4c3)ccc2N1S(C)(=O)=O (stereo not shown) [CBK285227]
viability at 28.5 h, 10 µM: 90.3%

Cc1nc(C2CCCN(C(=O)CCn3cccn3)C2)c2sccn12 (stereo not shown) [CBK285234]
viability at 28.5 h, 10 µM: 86.7%

Cc1nc(C2CCCN(C(=O)c3cnn(C)c3)C2)c2sccn12 (stereo not shown) [CBK285236]
viability at 28.5 h, 10 µM: 81.4%

Cc1nc(C2CCCN(C(=O)CCc3ccno3)C2)c2sccn12 (stereo not shown) [CBK285237]
viability at 28.5 h, 10 µM: 87.5%

Cc1noc(C)c1C(=O)N1CCC(c2nc(C)n3ccsc23)CC1 [CBK285239]
viability at 28.5 h, 10 µM: 101%

Cc1csc2c(C3CCN(C(=O)C4CC4)CC3)nc(C)n12 [CBK285241]
viability at 28.5 h, 10 µM: 88.8%

Cc1csc2c(C3CCN(C(=O)c4ccccn4)CC3)nc(C)n12 [CBK285244]
viability at 28.5 h, 10 µM: 77.4%

Cc1csc2c(C3CCN(C(=O)c4cc[nH]n4)CC3)nc(C)n12 [CBK285245]
viability at 28.5 h, 10 µM: 91.9%

Cc1csc2c(C3CCN(C(=O)c4cscn4)CC3)nc(C)n12 [CBK285246]
viability at 28.5 h, 10 µM: 80.2%

Cc1csc2c(C3CCN(C(=O)c4ccn(C)n4)CC3)nc(C)n12 [CBK285248]
viability at 28.5 h, 10 µM: 105%

Cc1csc2c(C3CCN(C(=O)c4cnn(C)c4)CC3)nc(C)n12 [CBK285250]
viability at 28.5 h, 10 µM: 89.7%

C=CCS(=O)(=O)N1CCC(c2nc(C)n3c(C)csc23)CC1 [CBK285251]
viability at 28.5 h, 10 µM: 80%

Cc1ccn2cc(-c3ccc4c(c3)CCN4S(C)(=O)=O)cc2c1 [CBK285252]
viability at 28.5 h, 10 µM: 83.8%

CC(=O)N1c2ccc(-c3cc4ccccn4c3)cc2CC1C (stereo not shown) [CBK285254]
viability at 28.5 h, 10 µM: 79.9%

Cn1ncc2c1CCCN(C(=O)COc1cccc(F)c1)C2 [CBK285257]
viability at 28.5 h, 10 µM: 96.9%

CC(=O)Nc1cc2ccccc2nc1C1CCN(C(=O)C(C)C)CC1 [CBK285259]
viability at 28.5 h, 10 µM: 83.7%

COc1ccc([C@@]2(O)CC[C@@H]3CN(C(=O)C4CCCC4)C[C@@H]32)cc1 [CBK285260]
viability at 28.5 h, 10 µM: 85%

CC(C)NC(=O)C1CC2CCC1(C)CC21NC(=O)c2ccccc2O1 (stereo not shown) [CBK285261]
viability at 28.5 h, 10 µM: 92%

O=C(c1ccccc1F)N1CC2CCCC(C1)C2N1CCOCC1 (stereo not shown) [CBK285262]
viability at 28.5 h, 10 µM: 79.9%

O=C(NC1CC1)[C@H]1CN(Cc2ccccc2)C[C@@H]1C(=O)c1ccccc1 [CBK285264]
viability at 28.5 h, 10 µM: 105%

Cc1ccc(-c2cc(C3CCN(C(=O)c4cnn(C)c4)C3)[nH]n2)cc1 (stereo not shown) [CBK285266]
viability at 28.5 h, 10 µM: 85.4%

CC(C)CC(=O)N1C[C@H]2CCCN(Cc3ccccn3)[C@H]2C1 [CBK285269]
viability at 28.5 h, 10 µM: 86.6%

Cc1cc(C)cc(OC(C)C(=O)N2CCCc3c(cnn3C)C2)c1 (stereo not shown) [CBK285270]
viability at 28.5 h, 10 µM: 82.1%

Cc1n[nH]c(C)c1CC(=O)NC(Cc1ccsc1)c1ccccn1 (stereo not shown) [CBK285271]
viability at 28.5 h, 10 µM: 105%

O=C(NC(Cc1ccsc1)c1ccccn1)c1ccc(=O)[nH]c1 (stereo not shown) [CBK285272]
viability at 28.5 h, 10 µM: 106%

CCOc1ccc(CCC(=O)N2CCCc3c(cnn3C)C2)cc1 [CBK285276]
viability at 28.5 h, 10 µM: 85.8%

C[C@]12C(=O)c3ccccc3NC(=O)C1[C@H]2C(=O)N1CCCCC1 (stereo partly shown) [CBK285281]
viability at 28.5 h, 10 µM: 92%

CC(=O)N1C[C@H]2CCCN(S(=O)(=O)c3ccc(F)cc3)[C@H]2C1 [CBK285283]
viability at 28.5 h, 10 µM: 88.8%

O=C(Cn1cccn1)NC(Cc1ccsc1)c1ccccn1 (stereo not shown) [CBK285284]
viability at 28.5 h, 10 µM: 92.8%

CC(C)c1ccccc1OCC(=O)N1CCCc2c(cnn2C)C1 [CBK285287]
viability at 28.5 h, 10 µM: 111%

CC(C)CC(=O)N1C[C@H]2CCCN(Cc3ccsc3)[C@H]2C1 [CBK285290]
viability at 28.5 h, 10 µM: 102%

CC(C)(C)NC(=O)[C@@H]1CNC[C@]12Cc1ccccc1C(=O)N2 [CBK285294]
viability at 28.5 h, 10 µM: 103%

Cc1ccc([C@@]2(O)CC[C@@H]3CN(S(=O)(=O)C(C)C)C[C@@H]32)cc1 [CBK285297]
viability at 28.5 h, 10 µM: 97.8%

Cn1cc(C2CCCCCN2C(=O)c2cc(C3CC3)on2)cn1 (stereo not shown) [CBK285301]
viability at 28.5 h, 10 µM: 104%

Cc1c(C(=O)N2CCCC(c3cnccn3)C2)oc2c(F)cccc12 (stereo not shown) [CBK285302]
viability at 28.5 h, 10 µM: 96.3%

Cc1noc2nc(C3CCN(C(=O)C4CC4)CC3)cc(C(F)F)c12 [CBK285306]
viability at 28.5 h, 10 µM: 95.8%

Cc1noc2nc(C3CCN(C(=O)C4CC4C)CC3)cc(C(F)F)c12 (stereo not shown) [CBK285307]
viability at 28.5 h, 10 µM: 93%

O=C1NC2(CCc3ccccc31)CCN(C(=O)c1ccc(F)cc1)C2 (stereo not shown) [CBK285308]
viability at 28.5 h, 10 µM: 102%

c1csc(-c2nnc(C3CCN(Cc4ccsc4)CC3)o2)c1 [CBK285309]
viability at 28.5 h, 10 µM: 102%

CC(C)(C)C(=O)N1CCC(c2nnc3n2CCCCC3)CC1 [CBK285311]
viability at 28.5 h, 10 µM: 88.7%

Cc1ccc(C(=O)N2C[C@H]3NC(=O)c4ccccc4C(=O)[C@@]3(C)C2)cc1 [CBK285315]
viability at 28.5 h, 10 µM: 87.6%

Cc1ccccc1C(=O)N1C[C@H]2NC(=O)c3ccccc3C(=O)[C@@]2(C)C1 [CBK285316]
viability at 28.5 h, 10 µM: 99.7%

O=C(NCCc1c[nH]c2cccc(C3(O)CCCC3)c12)C1CC1 [CBK285319]
viability at 28.5 h, 10 µM: 82.3%

Cn1cc([C@@H]2CN(Cc3cccs3)C[C@H]2N)c2ccncc21 [CBK285320]
viability at 28.5 h, 10 µM: 98.9%

O=C(NC1CCN(CC2(c3ccccc3)CC2)CC1)c1ccco1 [CBK285321]
viability at 28.5 h, 10 µM: 83.7%

O=C(NC1CCN(CC2(c3ccccc3)CC2)CC1)C1CCC1 [CBK285322]
viability at 28.5 h, 10 µM: 98.9%

COc1ccc(CCC(=O)N2CCCc3c(cnn3C)C2)cc1 [CBK285326]
viability at 28.5 h, 10 µM: 111%

CN(C)CC1CN(C(=O)Cc2ccccc2F)Cc2ccccc2O1 (stereo not shown) [CBK285327]
viability at 28.5 h, 10 µM: 90.4%

OCC1CCCN(Cc2c(C3CCCC3)[nH]c3ncccc23)C1 (stereo not shown) [CBK285332]
viability at 28.5 h, 10 µM: 96.1%

CC(=O)N1CCCN(Cc2c(C(C)C)[nH]c3ncccc23)CC1 [CBK285333]
viability at 28.5 h, 10 µM: 103%

CN1CCN(Cc2c(C(C)(C)C)[nH]c3ncccc23)CC1 [CBK285334]
viability at 28.5 h, 10 µM: 104%

CN1CCN(Cc2c(-c3ccc(F)cc3)[nH]c3ncccc23)CC1 [CBK285335]
viability at 28.5 h, 10 µM: 85.4%

c1cnc2[nH]c(C3CCCC3)c(CN3CCOCC3)c2c1 [CBK285337]
viability at 28.5 h, 10 µM: 77.5%

CC(=O)N1CCN(Cc2c(C3CCCC3)[nH]c3ncccc23)CC1 [CBK285339]
viability at 28.5 h, 10 µM: 80%

CC(C)(C)c1[nH]c2ncccc2c1CN1CCSCC1 [CBK285340]
viability at 28.5 h, 10 µM: 93.6%

CCN1CCN(Cc2c(C(C)(C)C)[nH]c3ncccc23)CC1 [CBK285341]
viability at 28.5 h, 10 µM: 106%

CC(C)(C)c1[nH]c2ncccc2c1CN1CCCC(CO)C1 (stereo not shown) [CBK285342]
viability at 28.5 h, 10 µM: 99.1%

O=C1NCCCC12CCN(Cc1cccs1)CC2 [CBK285346]
viability at 28.5 h, 10 µM: 85.2%

C=CCNC(=O)Cn1cccc2cc(-c3ccc(OC)cc3)nc1-2 [CBK285348]
viability at 28.5 h, 10 µM: 92.4%

CN(C)C(=O)Cn1cccc2cc(-c3ccc(F)cc3)nc1-2 [CBK285349]
viability at 28.5 h, 10 µM: 105%

FC(F)(F)c1[nH]c2ncccc2c1CN1CCN2CCCCC2C1 (stereo not shown) [CBK285355]
viability at 28.5 h, 10 µM: 80.9%

O=C(NCC1CCCO1)c1ccc(-n2ccnc2)c(-n2cccc2)c1 (stereo not shown) [CBK285356]
viability at 28.5 h, 10 µM: 98.2%

Cc1ccc(C2(CN3CCC(NC(=O)c4cc[nH]n4)CC3)CC2)cc1 [CBK285360]
viability at 28.5 h, 10 µM: 97.8%

Cc1ccc(CN2C[C@@H]3CC[C@@](O)(c4ncccc4C)[C@@H]3C2)o1 [CBK285361]
viability at 28.5 h, 10 µM: 82.6%

C=CCNC(=O)Cn1c(-c2ccc(OC)cc2)cc2cccnc21 [CBK285363]
viability at 28.5 h, 10 µM: 83.2%

O=C(NCc1ccncc1)c1ccc(-n2ccnc2)c(-n2cccc2)c1 [CBK285367]
viability at 28.5 h, 10 µM: 88.4%

O=C(NC1CCCC1)c1ccc(-n2ccnc2)c(-n2cccc2)c1 [CBK285368]
viability at 28.5 h, 10 µM: 94.1%
